In US20100216994A1, “USE OF NOVEL COMPOUND HAVING AFFINITY FOR AMYLOID, AND PROCESS FOR PRODUCTION OF THE SAME” (NIHON MEDI-PHYSICS CO., LTD., priority 2007, published 2010):

Legend:
[1] = target: T1, intracerebral amyloid (aggregated Aβ1-42) (Homo sapiens, UniProt P05067); test: Confirmation of imaging of amyloid in brain (autoradiogram of brain slice, amyloid injected into amygdaloid nucleus); type: in vivo, male Wistar rat; settings: rat, tail vein injection, brain removed 60 minutes after injection
T1 construct: Aβ1-42 (Wako) was dissolved in phosphate buffer (pH 7.4); purchased Wako
T1 sequence (P05067 672-713): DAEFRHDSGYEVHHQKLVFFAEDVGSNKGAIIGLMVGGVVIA
Procedure: (§1) The following experiment was carried out in order to examine whether amyloid in brain can be imaged by the compound of the present invention.
(§2) (1) Aβ1-42 (Wako) was dissolved in phosphate buffer (pH 7.4) and shaken at 37° C. for 72 hours, to obtain a 1 mg/mL suspension of aggregated Aβ (hereinafter referred to as amyloid suspension in this Example).
(§3) (2) Under thiopental anesthesia, […] of the amyloid suspension was injected into an amygdaloid nucleus on one side of a male Wistar rat (7-week old). As a control, 2.5 μL of a phosphate buffered physiological saline solution (pH 7.4) was injected into an amygdaloid nucleus on the other side of the rat. The rats were examined 1 day after the injection of the amyloid suspension and the phosphate buffered physiological saline solution (pH 7.4).
(§4) This sample solution was injected under thiopental anesthesia into the rat through the tail vein (dosage: 0.5 mL, dosed radioactivity: 16 MBq equivalent).
(§5) (4) Brain was removed 60 minutes after the injection to prepare a brain slice of 10 μm in thickness with a microtome (type: CM3050S, manufactured by LEICA). The brain slice was exposed to an imaging plate for 20 hours, and then image analysis was carried out by use of a Bio-imaging Analyzer (type: BAS-2500; manufactured by FUJIFILM Corporation).

[2] = test system: intracerebral amyloid (aggregated Aβ1-42); test: as above; type: in vivo, male Wistar rat; settings: rat, tail vein injection, brain removed 60 minutes after injection
Procedure: as §1, §2, §3, §4, §5

[3] = Partition coefficient based on the octanol extraction method (logPoctanol); settings: octanol / 10 mmol/L phosphate buffer (pH 7.4)
[4] = Transferability into brain and clearance (radioactive accumulation in brain after intravenous injection); settings: rats
Procedure: Using [^123I]-2-(4′-iodophenyl)-6-methoxyimidazo[1,2-a]pyridine and [^123I]-2-(4′-fluorophenyl)-6-iodoimidazo[1,2-a]pyridine, a time course change of radioactive accumulation in brain of male Wistar rats (7-week old) was measured.
The rats were sacrificed by bleeding from abdominal artery, and brains were removed and subjected to measurement of mass of brains (hereinafter referred to as A in this Example) and further subjected to measurement of radioactivity with a single channel analyzer (detector type: SP-20 manufactured by OHYO KOKEN KOGYO Co., Ltd.) 2, 5, 30 and 60 minutes after the injection. Also, radioactivity (hereinafter referred to as B in this Example) of the rest of the whole body was measured in the same manner as above.
The same procedures as above was conducted and subjected to the same procedures as above to calculate radioactive accumulation per unit weight of a brain (% ID/g) at the respective time points were calculated.
Three animals were used for Example 15, Example 16 and Comparative Example 2 at the respective time points.

[5] = target: aggregated Aβ (amyloid) from Aβ1-42 (Homo sapiens, UniProt P05067)
Chain of aggregated Aβ (amyloid) from Aβ1-42 (P05067 672-713): as above
From the text: Affinity of the present compounds with amyloid was examined by the following in vitro binding tests.

[6] = [^125I]-labeled compounds, normal mice, brain; cited from earlier work

SMILES	accumulation of radioactivity in amygdaloid nucleus on the side to which the amyloid suspension was injected [1]	accumulation of radioactivity in amygdaloid nucleus on the side to which the physiological saline solution was injected [2]	logPoctanol value [3]	Radioactive accumulation per unit weight in brain ([4]; after 2 min.) [% ID/g]	Radioactive accumulation per unit weight in brain ([4]; after 5 min.) [% ID/g]	Radioactive accumulation per unit weight in brain ([4]; after 30 min.) [% ID/g]	Radioactive accumulation per unit weight in brain ([4]; after 60 min.) [% ID/g]	radioactive count specifically attached to amyloid (A−B) versus concentration of amyloid ([5]; amyloid 25, 62.5, 250, 625 and 1000 nmol/L, 22° C., 3 hours, non-specific count B subtracted)	capability of binding to amyloid ([5]; conclusion from in vitro binding test)	clearance from normal tissues [6]
COc1ccc(-c2cn3cc([123I])ccc3n2)cc1 [[^123I]-6-iodo-2-(4′-methoxyphenyl)imidazo[1,2-a]pyridine]	marked accumulation of radioactivity	no significant accumulation of radioactivity	1.7	1.04	0.72	0.12	0.04			
CN(C)c1ccc(-c2cn3cc([123I])ccc3n2)cc1 [[^123I]-IMPY, reference compound]			1.9	1.19	0.97	0.23	0.09			
COc1ccc2nc(-c3ccc([125I])cc3)cn2c1 [[^125I]-2 (4′-iodophenyl)-6-methoxyimidazo[1,2-a]pyridine]								increase proportionally to the concentration of amyloid	highly capable of binding to amyloid	
CN(C)c1ccc(/C=C/c2ccc(I)cc2)cc1 [m-I-SB, (E)-4-dimethylamino-4′-iodostilbene]										insufficient in clearance from normal tissues
